The values below come from patent US7683065B2, “Pyridines useful as modulators of ion channels” (Vertex Pharmaceuticals Incorporated, priority 2005, dated 2010).

Assay [1] has as its target T1, NaV1.8 (Homo sapiens, UniProt Q9Y5Y9). The assay is described as follows: Activity against NaV 1.8 channel (NaV inhibition assays, Table 4). Format: cell-based. The protocol:
Compounds of the invention are useful as antagonists of voltage-gated sodium ion channels. Antagonist properties of test compounds were assessed as follows. Cells expressing the NaV of interest were placed into microtiter plates. After an incubation period, the cells were stained with fluorescent dyes sensitive to the transmembrane potential. The test compounds were added to the microtiter plate. The cells were stimulated with either a chemical or electrical means to evoke a NaV dependent membrane potential change from unblocked channels, which was detected and measured with trans-membrane potential-sensitive dyes. Antagonists were detected as a decreased membrane potential response to the stimulus. The optical membrane potential assay utilized voltage-sensitive FRET sensors described by Gonzalez and Tsien (See Gonzalez, J. E. and R. Y. Tsien (1995) “Voltage sensing by fluorescence resonance energy transfer in single cells” Biophys J 69(4): 1272-80, and Gonzalez, J. E. and R. Y. Tsien (1997) “Improved indicators of cell membrane potential that use fluorescence resonance energy transfer” Chem Biol 4(4): 269-77) in combination with instrumentation for measuring fluorescence changes such as the Voltage/Ion Probe Reader (VIPR®) (See, Gonzalez, J. E., K. Oades, et al. (1999) “Cell-based assays and instrumentation for screening ion-channel targets” Drug Discov Today 4(9): 431439).
24 hours before the assay on VIPR, CHO cells endogenously expressing a NaV1.2 type voltage-gated NaV are seeded in 96-well poly-lysine coated plates at 60,000 cells per well. Other subtypes are performed in an analogous mode in a cell line expressing the NaV of interest. • 1) On the day of the assay, medium is aspirated and cells are washed twice with 225 μL of Bath Solution #2 (BS#2). • 2) A 15 uM CC2-DMPE solution is prepared by mixing 5 mM coumarin stock solution with 10% Pluronic 127 1:1 and then dissolving the mix in the appropriate volume of BS#2. • 3) After bath solution is removed from the 96-well plates, the cells are loaded with 80 μL of the CC2-DMPE solution. Plates are incubated in the dark for 30 minutes at room temperature. • 4) While the cells are being stained with coumarin, a […] oxonol solution in BS#2 is prepared. In addition to DiSBAC2(3), this solution should contain 0.75 mM ABSC1 and […] veratridine (prepared from 10 mM EtOH stock, Sigma #V-5754). • 5) After 30 minutes, CC2-DMPE is removed and the cells are washed twice with 225 μL of BS#2. […] The cells are then incubated for 20-30 minutes. • 7) Once the incubation is complete, the cells are ready to be assayed on VIPR® with a sodium addback protocol. […]
The following is an example of how NaV1.3 inhibition activity is measured using the optical membrane potential method#2. […]

The next assay relates to neuropathic pain. To be noted: in vivo; cited from earlier work.
The target of the next assay is NaV1.3 (Homo sapiens, UniProt Q9NY46). To be noted: read-out: TTX IC50; cited from earlier work.
Sequence of NaV1.3 (Q9NY46 whole entry, looked up): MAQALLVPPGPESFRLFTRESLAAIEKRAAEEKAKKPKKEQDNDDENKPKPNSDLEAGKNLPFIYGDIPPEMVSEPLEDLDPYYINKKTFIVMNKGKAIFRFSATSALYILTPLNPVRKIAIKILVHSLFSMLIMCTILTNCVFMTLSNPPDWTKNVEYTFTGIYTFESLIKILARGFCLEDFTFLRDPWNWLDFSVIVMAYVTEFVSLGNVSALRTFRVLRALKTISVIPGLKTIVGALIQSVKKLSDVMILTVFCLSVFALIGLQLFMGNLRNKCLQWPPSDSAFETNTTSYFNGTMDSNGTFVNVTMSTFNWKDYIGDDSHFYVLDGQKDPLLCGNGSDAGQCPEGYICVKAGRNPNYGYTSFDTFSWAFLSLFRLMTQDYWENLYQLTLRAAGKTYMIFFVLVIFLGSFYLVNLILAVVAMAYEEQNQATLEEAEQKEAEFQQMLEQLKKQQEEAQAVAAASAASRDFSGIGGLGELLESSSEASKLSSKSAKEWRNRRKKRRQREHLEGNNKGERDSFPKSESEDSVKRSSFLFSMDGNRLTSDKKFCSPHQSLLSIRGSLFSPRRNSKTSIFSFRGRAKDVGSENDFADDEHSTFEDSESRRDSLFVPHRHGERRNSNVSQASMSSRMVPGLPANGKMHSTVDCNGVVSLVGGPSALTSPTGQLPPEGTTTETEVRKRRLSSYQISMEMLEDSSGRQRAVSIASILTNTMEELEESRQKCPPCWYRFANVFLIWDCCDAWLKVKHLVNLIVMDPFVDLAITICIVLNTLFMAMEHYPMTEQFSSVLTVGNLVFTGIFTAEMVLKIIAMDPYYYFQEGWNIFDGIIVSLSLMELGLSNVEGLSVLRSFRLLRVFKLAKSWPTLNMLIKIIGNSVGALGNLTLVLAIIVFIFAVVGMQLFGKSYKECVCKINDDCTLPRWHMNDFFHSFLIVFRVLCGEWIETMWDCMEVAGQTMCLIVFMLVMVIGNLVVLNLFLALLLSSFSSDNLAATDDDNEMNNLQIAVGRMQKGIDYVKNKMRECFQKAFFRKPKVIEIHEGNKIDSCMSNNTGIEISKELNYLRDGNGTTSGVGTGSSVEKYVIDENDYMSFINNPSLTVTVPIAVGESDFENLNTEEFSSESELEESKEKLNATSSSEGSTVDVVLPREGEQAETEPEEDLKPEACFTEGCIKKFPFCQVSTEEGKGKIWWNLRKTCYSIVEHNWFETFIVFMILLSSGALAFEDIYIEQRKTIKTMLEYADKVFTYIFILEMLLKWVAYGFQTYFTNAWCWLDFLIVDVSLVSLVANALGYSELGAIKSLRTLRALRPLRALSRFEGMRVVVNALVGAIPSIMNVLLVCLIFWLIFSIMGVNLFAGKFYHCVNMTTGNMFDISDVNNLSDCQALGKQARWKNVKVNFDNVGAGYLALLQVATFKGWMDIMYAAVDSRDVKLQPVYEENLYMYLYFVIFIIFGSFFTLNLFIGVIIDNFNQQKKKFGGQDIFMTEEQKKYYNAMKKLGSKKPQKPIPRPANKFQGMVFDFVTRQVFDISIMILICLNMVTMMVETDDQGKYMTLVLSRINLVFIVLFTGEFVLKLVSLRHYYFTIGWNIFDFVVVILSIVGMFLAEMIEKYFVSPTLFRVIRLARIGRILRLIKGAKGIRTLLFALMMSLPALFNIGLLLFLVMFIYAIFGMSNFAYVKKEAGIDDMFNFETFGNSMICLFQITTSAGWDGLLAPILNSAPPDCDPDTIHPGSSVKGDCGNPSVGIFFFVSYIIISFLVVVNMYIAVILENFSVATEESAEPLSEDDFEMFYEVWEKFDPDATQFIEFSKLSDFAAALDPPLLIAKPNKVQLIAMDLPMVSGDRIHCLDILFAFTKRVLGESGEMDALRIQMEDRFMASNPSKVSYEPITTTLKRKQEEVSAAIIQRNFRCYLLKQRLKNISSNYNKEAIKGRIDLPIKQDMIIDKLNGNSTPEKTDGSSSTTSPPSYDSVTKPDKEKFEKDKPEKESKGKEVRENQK
The target of assay [2] is T1, NaV1.8. To be noted: read-out: TTX IC50; cited from earlier work.

Where two headings read alike, the source gives them in different places.

T1 sequence (Q9Y5Y9 whole entry, looked up): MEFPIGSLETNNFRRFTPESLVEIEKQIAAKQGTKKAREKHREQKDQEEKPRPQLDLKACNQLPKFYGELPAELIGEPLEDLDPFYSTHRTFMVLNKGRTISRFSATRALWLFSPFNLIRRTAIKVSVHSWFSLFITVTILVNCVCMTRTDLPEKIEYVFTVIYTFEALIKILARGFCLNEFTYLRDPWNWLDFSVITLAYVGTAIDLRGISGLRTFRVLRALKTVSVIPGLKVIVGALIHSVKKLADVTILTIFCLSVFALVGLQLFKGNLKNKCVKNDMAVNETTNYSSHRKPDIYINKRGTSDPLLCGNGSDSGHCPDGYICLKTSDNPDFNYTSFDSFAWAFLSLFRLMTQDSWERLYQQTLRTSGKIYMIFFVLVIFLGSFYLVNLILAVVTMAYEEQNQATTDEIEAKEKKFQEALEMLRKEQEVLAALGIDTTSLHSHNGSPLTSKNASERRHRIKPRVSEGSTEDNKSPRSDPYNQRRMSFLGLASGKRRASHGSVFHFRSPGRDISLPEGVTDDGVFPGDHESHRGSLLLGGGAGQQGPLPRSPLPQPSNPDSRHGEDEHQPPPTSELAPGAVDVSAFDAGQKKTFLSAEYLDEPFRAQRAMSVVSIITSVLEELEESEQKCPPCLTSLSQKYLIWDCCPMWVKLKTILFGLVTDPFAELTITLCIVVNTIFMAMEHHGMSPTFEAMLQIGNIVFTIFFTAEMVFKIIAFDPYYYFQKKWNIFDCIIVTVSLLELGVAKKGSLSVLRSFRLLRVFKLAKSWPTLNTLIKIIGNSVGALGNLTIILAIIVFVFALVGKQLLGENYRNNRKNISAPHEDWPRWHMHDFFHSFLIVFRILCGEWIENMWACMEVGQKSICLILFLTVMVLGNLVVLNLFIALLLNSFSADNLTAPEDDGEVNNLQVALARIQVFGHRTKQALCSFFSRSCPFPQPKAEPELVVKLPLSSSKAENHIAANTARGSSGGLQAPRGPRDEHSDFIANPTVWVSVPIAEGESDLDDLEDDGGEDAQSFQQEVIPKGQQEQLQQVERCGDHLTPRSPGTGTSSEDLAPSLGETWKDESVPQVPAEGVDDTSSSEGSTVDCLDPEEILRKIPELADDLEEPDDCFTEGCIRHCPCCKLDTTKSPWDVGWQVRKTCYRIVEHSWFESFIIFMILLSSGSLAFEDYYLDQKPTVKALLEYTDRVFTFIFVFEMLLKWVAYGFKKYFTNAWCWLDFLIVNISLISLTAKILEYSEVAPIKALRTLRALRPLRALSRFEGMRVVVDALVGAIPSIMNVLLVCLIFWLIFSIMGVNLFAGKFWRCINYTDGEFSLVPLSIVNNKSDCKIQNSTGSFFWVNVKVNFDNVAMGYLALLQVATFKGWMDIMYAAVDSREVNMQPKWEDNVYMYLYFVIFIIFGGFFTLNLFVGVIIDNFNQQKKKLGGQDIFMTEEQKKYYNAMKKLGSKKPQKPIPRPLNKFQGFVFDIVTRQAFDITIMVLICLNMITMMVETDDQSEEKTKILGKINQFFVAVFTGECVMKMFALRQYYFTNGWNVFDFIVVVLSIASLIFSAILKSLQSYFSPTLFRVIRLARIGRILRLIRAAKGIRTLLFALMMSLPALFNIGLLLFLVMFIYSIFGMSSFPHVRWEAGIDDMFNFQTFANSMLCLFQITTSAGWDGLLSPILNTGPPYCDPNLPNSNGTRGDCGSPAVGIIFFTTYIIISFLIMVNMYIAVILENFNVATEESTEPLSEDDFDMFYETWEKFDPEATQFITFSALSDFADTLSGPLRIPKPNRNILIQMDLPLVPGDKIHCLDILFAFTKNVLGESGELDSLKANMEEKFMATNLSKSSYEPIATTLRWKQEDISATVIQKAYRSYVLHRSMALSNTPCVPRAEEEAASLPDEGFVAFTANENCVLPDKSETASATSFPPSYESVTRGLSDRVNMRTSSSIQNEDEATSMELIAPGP

`CC(C)COC(=O)N1CCN(c2cc(-c3ccccc3O)ccn2)CC1` [Compound 5, Isobutyl-4-[4′-(2-hydroxyphenyl)-pyridin-2′-yl]-piperazine-1-carboxylate]: the concentration for half-maximal inhibition (IC50) on NaV1.8 [1] was above 15 µM.
The same measure, in the same setting: under `CC(C)C[C@@H](O)C(=O)N1CCN(c2cccc(-c3ccccc3O)n2)CC1` [Compound 4, (R)-2-hydroxy-1-(4-(6-(2-hydroxyphenyl)pyridin-2-yl)piperazin-1-yl)-4-methylpentan-1-one] stands below 10 µM; under `CC(C)COC(=O)N1CCN(c2ccnc(-c3ccccc3O)c2)CC1` [Compound 1, Isobutyl 4-(2-(2-hydroxyphenyl)pyridin-4-yl)piperazine-1-carboxylate], above 15 µM.
With `NCC1(CC(=O)O)CCCCC1` [Gabapentin], in the assay with neuropathic pain, the “share of patients in whom it works” value was 60%.
Regarding `NC1=N[C@H](O)[C@H]2[C@H]3O[C@]4(O)O[C@@H]([C@@H](O)[C@@]2(N1)[C@@H]4O)[C@]3(O)CO` [TTX, tetrodotoxin], the IC50 was 0.015 µM on NaV1.3 and above 50 µM at NaV1.8 [2].
On to `CC(C)COC(=O)N1CCN(c2cccc(-c3ccccc3O)n2)CC1` [Compound 3, 4-[6-(2-hydroxyphenyl)-2-pyridyl]piperazine-1-carboxylic acid isobutyl ester], for which the concentration for half-maximal inhibition (IC50) on NaV1.8 [1] lay within 10 to 15 µM.
